Tests used:
[1] = system: 10-mer complementary DNA; assay: Tm of duplex between PNA and 10-mer complementary DNA (UV/Vis); format: binding; conditions: 4 μM PNA and 4 μM 10-mer DNA, aqueous buffer pH 7.16, 10 mM sodium phosphate, 100 mM NaCl
Procedure: The PNA derivatives in Table 1 were evaluated for their binding affinity for 10-mer DNAs complementarily targeting either the N-terminal or C-terminal. The binding affinity was assessed by Tm value for the duplex between PNA and 10-mer complementary DNA. The duplex between PNA derivatives in Table 1 and fully complementary DNAs show Tm values too high to be reliably determined in aqueous buffer solution, since the buffer solution tends to boil off during the Tm measurement.
Tm values were determined on an UV/Vis spectrometer as follows. A mixed solution of 4 μM PNA oligomer and 4 μM complementary 10-mer DNA in 4 mL aqueous buffer (pH 7.16, 10 mM sodium phosphate, 100 mM NaCl) in 15 mL polypropylene falcon tube was incubated at 90° C. for a minute and slowly cooled down to ambient temperature over several minutes. Then the solution was transferred into a 3 mL quartz UV cuvette equipped with an air-tight cap, and subjected to a Tm measurement at 260 nm on an Agilent 8453 UV/Visible spectrophotometer or a similar one as described in the prior art [PCT/KR2009/001256] or with minor modifications. The 10-mer complementary DNAs for Tm measurement were purchased from Bioneer (www.bioneer.com, Dajeon, Republic of Korea) and used without further purification.

[2] = system: androgen receptor; assay: AR IHC of skin samples after topical administration in mice; format: in vivo, mouse; conditions: topical 0.2 fM or 1 fM, skin sampled Day 24
Excerpt: [AR IHC of Skin Sample] Following the shaving in Day 21, the mice received a single topical administration of either vehicle or “ASO 1” according to the group. In Day 24, the skin of the area with hair removal was sampled for immunohistochemistry (IHC) analysis against androgen receptor. The skin samples were cryo-sectioned and subjected to immunostaining in series with a primary anti-AR antibody (Cat. No. sc-816, Santa Cruz) at 1:100 dilution, with a secondary anti-IgG (Cat No. BA-1100, Vector) at 1:200 dilution, and then with Dylight 594-steptavidin (Cat No. SA-5594, Vector, Calif., USA) at 1:200 dilution for red fluoresence tagging. The IHC images were captured on an Olympus fluorescence microscope for changes in the AR expression level upon topical treatment with “ASO 1”.
[AR Immunohistochemistry of Skin Samples] After the hair cut in Day 27, The animals topically received further either vehicle or “ASO 10” at 1, 5, or 25 fM in Days 27 and 29. Skin samples of the back were collected in Day 30 for immunohistochemical analysis against androgen receptor. The skin samples were subjected to immunostaining against androgen receptor as described in “Example 7”. IHC images were captured on a Zeiss slide scanner. FIG. 14B is a representative set of AR IHC images. […] It would be difficult to clearly state that the AR expression in hair follicles decreased in the treatment groups due to the marked increases in the number of hair follicles in the treatment groups.

[3] = system: human AR mRNA; assay: qPCR (SYBR Green) of AR mRNA level in MCF7 cells; conditions: 5 hours
[4] = system: full-length AR protein; assay: Western blot of AR protein in MCF7 cells; format: cell-based, human; conditions: 100 zM to 300 aM, 48 hours
Procedure: 4 culture dishes were used for 4 negative controls. 48 hours later, cells were washed 2 times with cold PBS, and then subjected to lysis with 200 μL 1× cell lysis buffer (Cat. No. 9803, Cell Signaling Tech) supplemented with 1× protease inhibitor (Cat. No. P8340, Sigma). The lysates were collected in 1.5 ml e-tube. 200 μL of each lysate was mixed with 100 μL 3× sample buffer, and boiled for 5 min at 100 ? . 20 μL of each lysate (12 lysates in total). 4 negative controls and 8 ASO treatment samples) was subjected to electrophoretic separation on a 8% SDS-PAGE gel, and transferred onto a 0.2 μm PVDF membrane. The membrane was probed with anti-AR antibody (Cat. No. 5153, Cell Signaling Tech) and anti-β-actin antibody (Cat. No. sc4778, Santa Cruz). FIG. 10A provides the AR Western blot data obtained therefrom. Multiple (negative) control samples were used to overcome technical artifacts of western blot procedures.

[5] = system: C57BL/6 mice; assay: Hair growth in C57BL/6 mice upon topical administration (brightness score, hair weight); format: in vivo, mouse; conditions: for average hair weight: hair growth between Day 0 and Day 21
Procedure: [Hair Removal and Grouping] In Day 0, 7 week old female C57BL/6 mice were anesthetized with zoletil/rompun, and the hair in the back was cut and removed with a clipper and wax, respectively. Mice with flawless (i.e. spotless) hair removal were selected and randomly assigned into three groups (7 animals per group).
[Topical Administration] The topical solutions of “ASO 1” were prepared by diluting a mother stock solution of “ASO 1” to 0.2 fM or 1 fM in aqueous 30% (v/v) ethanol supplemented with 3% (v/v) glycerin. About 100 μL of 0 (negative control), 0.2, or 1 fM “ASO 1” was topically administered in the back of each animal using a cotton ball in Days 3, 7, 10, and 14.
[Digital Image Scoring for Hair Growth] For scoring the hair growth, the animals were anesthetized and photographed by group as shown in FIG. 11A using a digital camera at a fixed value of exposure time and illumination. The digital image for the area of the hair removal for each animal was selected and digitally scored for the average brightness over the selected area using “ImageJ” program. Lower brightness score is taken as faster hair growth. Brightness scores of individual animals were combined by group, and subjected to statistical analysis by student's t-test. FIG. 11B summarizes the relative brightness scores of the ASO treated groups against the control group. The relative brightness score tended to decrease with days in the treatment groups. […] Thus, “ASO 1” was concluded to promote hair growth upon topical administrations at 1 fM.
[Scoring by Hair Weight] In Day 21, the animals were anesthetized and the hair in the back was cut with a clipper. The hair samples from individual animals were combined by group, and weighed to evaluate the hair growth between Day 0 and Day 21. The average hair weight was 70.5 mg/animal for the control group, 90.8 mg/animal for the 0.2 fM treatment group, and 94.4 mg/animal for the 1 fM treatment group. Thus “ASO 1” was concluded to promote hair growth upon topical administrations at 0.2 fM as well as 1 fM.
[Hair Removal and Grouping] In Day 0, 7 week old female C57BL/6 mice were anesthetized with zoletil/rompun, and the hair in the back was cut and removed with a clipper and wax, respectively. Mice with flawless (i.e. spotless) hair removal were selected and randomly assigned into three groups (10 animals per group).
[Topical Administration] The topical solutions of “ASO 5” were prepared by diluting a mother stock solution of “ASO 5” to 1, 5, or 25 fM in aqueous 30% (v/v) ethanol supplemented with 3% (v/v) glycerin. About 100 μL of each ASO solution or vehicle (negative control) was topically administered to in the back of an animal using a cotton ball in Days 3, 7, 10, 14 and 21.
Following the shaving in Day 21, the animals received a single topical administration of either vehicle or “ASO 5” at 1 fM, 5 fM, or 25 fM. In Day 53, the hair in the back was collected by shaving with a clipper to determine the total amount of hair growth between Days 21 and 53. The average hair weights of the 1 fM, 5 fM, and 25 fM groups were 1,630%, 1,450%, and 771% of the non-treated group, respectively. Thus “ASO 5” was concluded to promote hair growth upon topical administrations at 1 to 25 fM.
[Hair Removal and Grouping] In Day 0, 7 week old female C57BL/6 mice were anesthetized with zoletil/rompun, and the hair in the back was cut and removed with a clipper and wax, respectively. Mice with flawless (i.e. spotless) hair removal were selected and randomly assigned into three groups (9 animals per group).
[Topical Administration] The topical solutions of “ASO 10” were prepared by diluting a mother stock solution of “ASO 10” to 1, 5, or 25 fM in aqueous 30% (v/v) ethanol supplemented with 3% (v/v) glycerin. About 100 μL of each ASO solution or vehicle (negative control) was topically administered to in the back of an animal using a cotton ball in Day 2.

Q: Which results are given for “Fethoc-C(1O2)TT-A(6)CC-A(6)GG(6)-CA(6)A-NH2 (antisense CTTACCAGGCAA; N-Fethoc, C-terminal amide, chemistry not fully specified) [ASO 13]”?
A: Tm Value, 10-mer DNA against C-Terminal [1]: 87.0 °C; Tm Value, 10-mer DNA against N-Terminal [1]: 83.0 °C

Q: Which “Tm Value, 10-mer DNA against C-Terminal” value [1] does the source give for “Fethoc-GA(5)T-AC(1O2)C-A(5)GG(6)-CAA(5)-G-NH2 (antisense GATACCAGGCAAG; N-Fethoc, C-terminal amide, chemistry not fully specified) [ASO 8]” here?
A: 86.0 °C

Q: And the “Tm Value, 10-mer DNA against N-Terminal” value [1]?
A: 87.4 °C

Q: Which results are given for “Fethoc-TA(5)C-CAG(6)-GC(1O2)A-A(5)GG(6)-C—NH2 (antisense TACCAGGCAAGGC; chemistry not fully specified) [ASO 9]”?
A: Tm Value, 10-mer DNA against C-Terminal [1]: 84.5 °C; Tm Value, 10-mer DNA against N-Terminal [1]: 84.3 °C

Q: “Fmoc-GA(5)A-GC(1O2)C-A(5)GG-C(1O2)AA(5)-G-NH2 (antisense GAAGCCAGGCAAG; N-Fmoc, C-terminal amide, chemistry not fully specified) [ASO 1]” was tested. Which “AR expression in hair follicles (IHC)” value [2] did it give?
A: markedly inhibited

Q: And the “AR expression in the muscle layer underneath the dermis (IHC)” value [2]?
A: decreased

Q: And the “exon message levels (exons 4-6) relative to negative control” value ([3]; 1 aM)?
A: ~60 % of the negative control

Q: What about the “decrease of exon message levels (exons 4-6)” value ([3]; 100 zM) of the same substance?
A: more than 80%

Q: And the “AR band intensity vs lysates without ASO treatment” value [4]?
A: considerably weaker

Q: What about the average hair weight ([5]; 0.2 fM topical) of the same substance?
A: 90.8 mg/animal

Q: What about the average hair weight ([5]; 1 fM topical) of the same substance?
A: 94.4 mg/animal

Q: What about the “brightness score vs non-treated group” value ([5]; Day 13, 1 fM topical in Days 3, 7, 10, 14, lower brightness = faster hair growth) of the same substance?
A: significantly lower
